Data taken from patent EP0351921A2, “Modified beta adrenergic receptor” (MERCK & CO. INC., priority 1988, dated 1990).

Assays:
[Glu¹¹³]βAR = [Glu¹¹³]βAR (Mesocricetus auratus, UniProt P04274, D113E); experiment: Adenylyl cyclase stimulation in membranes of cell lines expressing the receptor; details: for %NaF: (Glu^113)βAR, percentage of maximal stimulation by 10 mM NaF, Table 3
[1] = target: wild-type βAR ([Asp113]βAR) (Mesocricetus auratus, UniProt P04274); experiment: as above; details: for %NaF: (Asp^113)βAR, percentage of maximal stimulation by 10 mM NaF, Table 3; for maximal adenylyl cyclase stimulation (% of NaF): [Asp113]βAR, maximally effective concentration of the compound, relative to 10 mM NaF, Table 1
wild-type βAR ([Asp113]βAR), sequence (P04274 whole entry): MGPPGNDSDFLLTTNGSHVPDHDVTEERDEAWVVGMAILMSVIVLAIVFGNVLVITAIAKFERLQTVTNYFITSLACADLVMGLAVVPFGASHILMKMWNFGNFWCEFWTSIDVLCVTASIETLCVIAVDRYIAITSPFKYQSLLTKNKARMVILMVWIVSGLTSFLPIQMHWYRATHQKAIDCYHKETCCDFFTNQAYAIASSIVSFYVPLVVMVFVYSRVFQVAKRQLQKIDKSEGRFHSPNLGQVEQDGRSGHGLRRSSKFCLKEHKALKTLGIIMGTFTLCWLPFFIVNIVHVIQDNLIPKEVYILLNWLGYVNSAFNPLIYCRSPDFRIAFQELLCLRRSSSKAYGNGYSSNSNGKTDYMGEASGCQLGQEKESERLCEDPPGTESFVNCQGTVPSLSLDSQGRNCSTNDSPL

[Asn113]βAR = target: T1, [Asn113]βAR (Mesocricetus auratus, UniProt P04274, D113N); experiment: as above; assay type: biochemical, hamster; details: for maximal adenylyl cyclase stimulation (% of NaF): [Asn113]βAR, maximally effective concentration of the compound, relative to 10 mM NaF, Table 1
T1 construct: pSVBAC contains the full length hamster β₂AR cDNA cloned into the EcoRI site of pSVL; expressed in transfected cells; host or cells: mouse L cells (clonal lines; membranes)
T1 sequence (P04274 whole entry D113N): as the sequence (P04274 whole entry) above, with D113N counted along it

[Arg¹¹³]βAR = [Arg¹¹³]βAR (Mesocricetus auratus, UniProt P04274, D113R); details: ligand concentrations as high as 1 mM
[Arg¹¹³]βAR, sequence (P04274 whole entry D113R): as the sequence (P04274 whole entry) above, with D113R counted along it

[Cys¹¹³]βAR = [Cys¹¹³]βAR (Mesocricetus auratus, UniProt P04274, D113C); details: ligand concentrations as high as 1 mM
[Cys¹¹³]βAR, sequence (P04274 whole entry D113C): as the sequence (P04274 whole entry) above, with D113C counted along it

[His¹¹³]βAR = [His¹¹³]βAR (Mesocricetus auratus, UniProt P04274, D113H); details: ligand concentrations as high as 1 mM
[His¹¹³]βAR, sequence (P04274 whole entry D113H): as the sequence (P04274 whole entry) above, with D113H counted along it

[LYS¹¹³]βAR = [LYS¹¹³]βAR (Mesocricetus auratus, UniProt P04274, D113K); details: ligand concentrations as high as 1 mM
[LYS¹¹³]βAR, sequence (P04274 whole entry D113K): as the sequence (P04274 whole entry) above, with D113K counted along it

[2] = maximum concentration 10⁻⁴ M (*)
[3] = maximum concentration 10⁻⁵ M (+)

[Glu¹¹³]βAR, sequence (P04274 whole entry D113E): as the sequence (P04274 whole entry) above, with D113E counted along it

| Compound | %NaF ([Glu¹¹³]βAR; maximum concentration 10⁻³ M) [%] | %NaF ([1]; maximum concentration 10⁻³ M) [%] | %NaF ([Glu¹¹³]βAR; [2]) | %NaF [1, 3] | also measured |
| --- | --- | --- | --- | --- | --- |
| Cc1ccc(OCC(O)CNC(C)C)c2c1CCC2 (stereo not drawn) [Compound 3, 3-(7-methylindan-4-yloxy) -1-isopropylamino-2-propanol] | 6 | 0 |  |  |  |
| COCCc1ccc(OCC(O)CNC(C)C)cc1 (stereo not drawn) [Compound 7, metoprolol] |  |  | 2^* % | 0^+ % |  |
| N=C(N)NCC(O)c1ccc(O)c(O)c1 [L-612,158, 1-[2-(3,4-dihydroxyphenyl)-2-hydroxyethyl]guanidine] |  |  |  |  | maximal adenylyl cyclase stimulation (% of NaF) [1]: 11%; decrease in affinity of the interaction with the wild type βAR ([1]; versus isoproterenol): 1000 fold; maximal adenylyl cyclase stimulation (% of NaF) ([Asn113]βAR): 50% |
| CC(C)NCC(O)COc1ccccc1 (stereo not drawn) [Compound 4, 3-phenoxy-1-isopropylamino-2-propanol] | 0 | 0 |  |  |  |
| CC(C)NCC(O)COc1cccc2[nH]ccc12 (stereo not drawn) [Compound 2, pindolol] | 35 | 0 |  |  |  |
| CC(C)NCC(O)COc1ccc(CC(N)=O)cc1 (stereo not drawn) [Compound 6, atenolol] |  |  | 0^* % | 0^+ % |  |
| CC(C)NCC(O)COc1ccc(-c2ncc[nH]2)cc1 (stereo not drawn) [Compound 5, 3-(4-(1-imidazol-2-yl)phenoxy)-1-isopropylamino-2-propanol] | 0 | 0 |  |  |  |
| CC(C)NCC(O)c1ccc(O)c(O)c1 (stereo not drawn) [isoproterenol] |  |  |  |  | stimulation of adenylyl cyclase ([Arg¹¹³]βAR): no stimulation; decrease in affinity for the receptor ([Glu¹¹³]βAR; substitution of Glu for Asp¹¹³, versus wild-type receptor): 300 fold; maximal adenylyl cyclase stimulation (% of NaF) [1]: 100%; stimulation of adenylyl cyclase ([Cys¹¹³]βAR): no stimulation; stimulation of adenylyl cyclase ([His¹¹³]βAR): no stimulation; stimulation of adenylyl cyclase ([LYS¹¹³]βAR): no stimulation; maximal adenylyl cyclase stimulation (% of NaF) ([Asn113]βAR): 100%; decrease in affinity for the receptor ([Asn113]βAR; substitution of Asn for Asp¹¹³, versus wild-type receptor): 5000 fold |
| CC(C)NCC(O)COc1ccc(COCCOC(C)C)cc1 (stereo not drawn) [Compound 8, bisopropol] |  |  | 0^* % | 0^+ % |  |
| CC(C)NCC(O)COc1ccccc1N1CCOCC1 (stereo not drawn) [Compound 9, 3-o-morpholinophenoxy-1-isopropylamino-2-propanol] | 0 | 0 |  |  |  |
